# Values quoted from earlier work, collected in patent US20100209480A1, “GALENICAL FORMULATIONS OF ORGANIC COMPOUNDS” (priority 2007, published 2010).
# Details: drug substance
compound,measurement,value
"COCCCOc1cc(C[C@@H](C[C@H](N)[C@@H](O)C[C@H](C(=O)NCC(C)(C)C(N)=O)C(C)C)C(C)C)ccc1OC [Aliskiren, 2(S),4(S),5(S),7(S)—N-(3-amino-2,2-dimethyl-3-oxopropyl)-2,7-di(1-methylethyl)-4-hydroxy-5-amino-8-[4-methoxy-3-(3-methoxy-propoxy)phenyl]-octanamide]",Hygroscopicity,highly hygroscopic
